This is an account of results in US20170086467A1, “MOLLUSCICIDE COMPOSITIONS AND METHODS OF USE THEREOF” (ECOFLORA AGRO SAS, priority 2014, published 2017).

Data set [1] has as its system banana tree snails (African snails). As to the kind of experiment: Mortality of banana plantation snails on treated plates in a shade house. The settings on record: T7, 2 g/plate. The data set is classed as in vivo. As to the method: The experiments were conducted in a shade house. Plastic plates and baskets for cover were used to keep the snails in contact with the products. Live snails were obtained by collection/pick up in a banana plantation. Approximately 250 snails were captured early in the morning, the time of day when they are still found in large numbers on the leaves and trunks of banana plants.
BROMOREX® 9.37 is a liquid formulation comprising capsicum extract and mustard essential oil. metaldehyde is a chemical molluscicide.
Four plates per treatment were randomly arranged on a shelf in the shade house. At the bottom of each plate small portions of banana leaves, papaya, and two slices of ripe bananas were placed. 20 mL of each sample was poured into each plate. Eight live snails of the same morphology and size were placed on each plate. Each treatment was repeated 4 times. The plates were covered with baskets that promoted good ventilation and prevented the snails from escaping. The treatments were carried out in late afternoon.
The behavior of snails in contact with the products as well as the mortality of the snails were recorded and interpreted. The data on the mortality of snails to 5 days after application of the products were statistically analyzed using the R software version 3.0.1. The separation of averages for significant effects was made using the Newman-Keuls test at 5% significant level.

For data set [2] the following is noted: 200° C.; one hour drying.
Source text: Caffeine was also quantitated by HPLC to determine the thermal stability of the molecule.

Where two headings read alike, the source gives them in different places.

Regarding `CC1OC(C)OC(C)OC(C)O1` (stereo not shown) [metaldehyde], the mortality rate in data set [1] (3 hours after treatment) worked out at 6.25%; in data set [1] (after 5 days) it was 34%.
Turning to `Cn1c(=O)c2c(ncn2C)n(C)c1=O` [caffeine, 3,7-dihydro-1,3,7-trimethyl-1H-purine-2,6-dione], the “thermal stability (in words)” value was “stable”. Moreover, the “thermal stability (in words)” value in data set [2] was “Pyrolysis and caffeine sublimation were observed”.
